Reference: paper PMC7942396, “Drug Repurposing Screen for Compounds Inhibiting the Cytopathic Effect of SARS-CoV-2” (Frontiers in Pharmacology, 2021)
Like-named read-outs stand apart in the source and are kept apart here. Where a SMILES comes first, the peptide text is derived from it. The star is where a group is joined. Cbz = O=C(OCc1ccccc1)*; CH2Cl = ClC*

Key:
in vitro = settings: African green monkey
[1] = system: SARS-CoV-2 (USA_WA1/2020); assay: microbe, parasite or virus in culture; format: cell-based; settings: for EC50: read-out: CPE EC50
[2] = SARS-CoV-2 CPE assay, Vero E6 cells, confirmed anti-SARS-CoV-2 compounds
[3] = SARS-CoV-2 CPE assay, Vero E6 cells, efficacy
[4] = cytotoxicity counter-assay, Vero E6 cells without virus
[5] = read-out: Cytotox CC50, cytotoxicity counter-assay, Vero E6 cells without virus
[6] = […], DMSO 0%, no-virus control 100%, hit confirmation
[7] = Vero E6 cells without virus, 72 h
[8] = SARS-CoV-2 CPE assay, Vero E6 cells

| Compound | EC50 [1, 2] [µM] | CPE % Efficacy [1, 3] [%] | % Cytotox (Vero E6 cells; [4]) [%] | CC50 (Vero E6 cells; [5]) [µM] | other results |
| --- | --- | --- | --- | --- | --- |
| Clc1ccc2c(c1)CCc1cccnc1C2=C1CCNCC1 [Desloratadine] | – | – | – | – | cytotoxicity (in vitro): 14.2% |
| C[C@@H]1O[C@@H](O[C@H]2[C@H](OC(=O)[C@]34CCC(C)(C)C[C@H]3C3=CCC5[C@@]6(C)CC[C@H](O[C@@H]7O[C@H](CO[C@@H]8OC[C@H](O)[C@H](O)[C@H]8O)[C@@H](O)[C@H](O)[C@H]7O)C(C)(C)C6CC[C@@]5(C)[C@]3(C)C[C@H]4O)OC[C@@H](O)[C@@H]2O)[C@H](O)[C@H](O)[C@H]1O[C@@H]1OC[C@H](O)[C@H](O[C@@H]2OC[C@@H](O)[C@H](O)[C@H]2O)[C@H]1O (stereo partly drawn) [NCGC00384864] | 0.6 | 46.4 | 58.6 | 1.91 | – |
| COc1ccc(NC(=O)c2ccc(-c3ccc(-c4nnc(C)o4)cc3C)cc2)cc1N1CCN(C)CC1 [GMC 2-29, reference compound] | – | – | – | – | CPE % Efficacy [1, 6]: 117.2%; EC50 [1]: 7.9 µM; % Cytotox (Vero E6 cells; [7]): <30% |
| COc1cccc(CCc2ccccc2OCC(CN(C)C)OC(=O)CCC(=O)O)c1.Cl (stereo not drawn) [Sarpogrelate hydrochloride] | 11.2 | 30.1 | 21.2 | 15.8 | – |
| Nc1nc2c(c(N3CC[C@@H](N)C3)n1)CCCc1ccccc1-2 [A 943931] | 11.2 | 104.3 | 34.8 | 12.6 | – |
| CC(C)(C)c1ccc(C(=O)Nc2cc(Cl)c(Br)cc2C(=O)O)cc1 [NCGC00386831] | 11.2 | 32.0 | 78.8 | 10 | – |
| Cl.Cl.Clc1ccccc1CNCC1CCC(CNCc2ccccc2Cl)CC1 (stereo not drawn) [AY 9944 dihydrochloride] | 3.16 | 41.0 | 48.2 | 12.6 | – |
| HBX 19818 | 7.94 | 80.9 | 39.1 | – | – |
| Cc1ncc(NC(=O)c2cccc(C(F)(F)F)c2)cc1-c1cnc(OC2CCOCC2)c(N2CCOCC2)c1 [RAF-709] | – | – | 56.6 | 8.91 | CPE % Efficacy [1, 8]: 58.4%; EC50 [1, 8]: 14.1 µM |
| CC(NC(=O)[C@H](Cc1ccccc1)NC(=O)OCc1ccccc1)C(=O)CF (stereo partly drawn) [Z-FA-FMK, reference compound] | – | – | – | – | CPE % Efficacy [1, 6]: 104.8%; EC50 [1]: 0.13 µM; % Cytotox (Vero E6 cells; [7]): <30% |
| C(=N\Nc1nc(Nc2ccccc2)nc(N2CCOCC2)n1)/c1c[nH]c2ccccc12 [MLS000543798] | 0.11 | 87.4 | 33.6 | 0.45 | – |
| CC1(N2CCC(n3c([C@@H]4CCCNC4)nc4ccccc43)CC2)CCCCCCC1 [MCOPPB, reference compound] | – | – | – | – | CPE % Efficacy [1, 6]: 85.6%; EC50 [1]: 3.5 µM; % Cytotox (Vero E6 cells; [7]): <30% |
| C=C1C(=O)O[C@H]2C3=C(C)CCC[C@]3(C)C(=O)C[C@@H]12 [NCGC00168931] | 2.24 | 40.6 | 69.6 | 10 | – |
| CCCCOC(=O)c1ccnc2cc(C(OCCN3CCCCC3)c3ccccc3C)sc12 (stereo not drawn) [NCGC00481621] | 10 | 88.9 | 35.5 | 12.6 | – |
| C/C(=N\NC(=S)N1CCC1)c1ccccn1 [NSC-319726] | 1.12 | 58.3 | 52.8 | 0.35 | – |
| Cn1nnnc1Sc1ncnc2scc(-c3cccc(S(C)(=O)=O)c3)c12 [NCGC00182390] | 4.47 | 57.8 | 63.9 | 8.91 | – |
| OCCCNc1cc(-c2ccnc(Nc3cccc(Cl)c3)n2)ccn1 [CGP-60474] | – | – | – | – | CPE % Efficacy [1]: 104.5%; EC50 [1]: 6.31 µM; % Cytotox (Vero E6 cells): 61.3%; CC50 (Vero E6 cells): 0.11 µM |
| CC(C)C[C@H](NC(=O)CNC(=O)OCc1ccccc1)C(=O)N[C@@H](Cc1ccccc1)C(=O)CCl [Z-Gly-Leu-Phe-chloromethyl ketone, reference compound] (Cbz-Gly-Leu-Phe-CH2Cl) | – | – | – | – | CPE % Efficacy [1, 6]: 87.2%; EC50 [1]: 1.3 µM; % Cytotox (Vero E6 cells; [7]): <30% |
| Cc1cc(CC(C)CC(C)(C)C)n(O)c(=O)c1.NCCO (stereo not drawn) [Piroctone Olamine] | 4.47 | 61.2 | 46.6 | 1.78 | – |
| Cc1cccc(Nc2nc(-c3ccncc3)cs2)c1 [STF-62247, reference compound] | – | – | – | – | Shape of concentration-response in the CPE assay ([1]; Figure 3): bell-shaped concentration-responses due to cytotoxicity; CPE % Efficacy [1, 6]: 107.1%; EC50 [1]: 1.1 µM; CC50 (Vero E6 cells; read-out: Cytotox CC50, Vero E6 cells without virus, 72 h): 11.2 µM |

| Compound | EC50 [1, 2] [µM] | CPE % Efficacy [1, 3] [%] | % Cytotox (Vero E6 cells; [4]) [%] | CC50 (Vero E6 cells; [5]) [µM] | other results |
| --- | --- | --- | --- | --- | --- |
| COc1cc(-c2cc(-c3ccc(N4CCNCC4)cc3)cnc2C)cc(OC)c1OC [LDN-214117] | – | – | 53.6 | 11.2 | CPE % Efficacy [1, 8]: 39.2%; EC50 [1, 8]: 11.2 µM |
| CN1CCN(S(=O)(=O)c2ccc(-c3cnc(N)c(C(=O)Nc4cccnc4)n3)cc2)CC1 [AZD-2858] | – | 80.0 | 41.0 | 12.6 | – |
| COc1ccccc1OCCNCC(O)COc1cccc2[nH]c3ccccc3c12.O=C(O)C(O)C(O)C(=O)O (stereo not drawn) [Carvedilol tartrate] | 11.2 | 101.1 | 12.7 | 11.2 | – |
| C[C@@H]1O[C@@H](O[C@@H]2[C@@H](O)[C@H](O[C@@H]3[C@@H](O)[C@@H](O)[C@H](O[C@H]4[C@H](OC(=O)[C@]56CCC(C)(C)C[C@H]5C5=CCC7[C@@]8(C)C[C@H](O)[C@H](O[C@@H]9O[C@@H](C)[C@H](O)[C@@H](O)[C@H]9O)[C@@](C)(CO)C8CC[C@@]7(C)[C@]5(C)C[C@H]6O)O[C@H](C)[C@H](O)[C@@H]4O)O[C@H]3C)OC[C@H]2O)[C@H](O)[C@H](O)[C@H]1O (stereo partly drawn) [NCGC00385241] | 0.85 | 123.9 | 98.7 | 1.91 | – |
| Cc1ccc(-c2c(C(=O)CCl)n(CCCO)c3ncnc(N)c23)cc1 [CMK] | – | – | 15.2 | – | CPE % Efficacy [1, 8]: 38.9%; EC50 [1, 8]: 12.6 µM |
| CC(CN(C)C)CN1c2ccccc2Sc2ccc(C(F)(F)F)cc21 (stereo not drawn) [Trifluomeprazine 2-butenedioate, reference compound] | – | – | – | – | CPE % Efficacy [1, 6]: 90.2%; EC50 [1]: 10 µM; % Cytotox (Vero E6 cells; [7]): <30% |
| C/C=C(\C)C(=O)O[C@H]1CC2C(=C1C)[C@H]1OC(=O)[C@](C)(O)[C@]1(O)[C@H](OC(=O)CCC)C[C@@]2(C)OC(C)=O (stereo partly drawn) [NCGC00169033] | 2.77 | 63.3 | 48.4 | 4.39 | – |
| C[C@H](CCC(=O)O)C[C@H](C)C[C@H](C)C(=O)/C=C(\O)[C@H](C)C[C@H](C)C/C=C/[C@@H](C)[C@@H](O)[C@@H](C)[C@@H](O)C[C@@H]1CC[C@@](C)([C@H]2CC[C@@](C)([C@@H](C)O)O2)O1 [Ionomycin(Calciumsalt)] | 7.8 | 90.4 | 69.7 | 6.95 | – |
| CS(=O)(=O)NCC1CCC(Nc2nc3c(s2)CCSc2ccccc2-3)CC1 (stereo not drawn) [LU AA33810] | – | – | 0.0 | – | CPE % Efficacy [1, 8]: 48.3%; EC50 [1, 8]: 12.6 µM |
| COC(=O)CC[C@@H](C)[C@H]1CC[C@H]2[C@@H]3CC[C@@H]4C[C@H](OC(C)=O)CC[C@]4(C)[C@H]3C[C@H](O)[C@]12C (racemic) | – | – | 0.0 | – | CPE % Efficacy [1, 8]: 62.5%; EC50 [1, 8]: 12.6 µM |
| COc1ccc2c(c1)c(CCN(C)C)cn2S(=O)(=O)c1ccccc1.O=C(O)C(=O)O [MS 245 oxalate] | – | – | 20.5 | 12.6 | CPE % Efficacy [1, 8]: 76.1%; EC50 [1, 8]: 12.6 µM |
| Cc1cc(N2CCN(C(=O)Oc3ccc(-c4ccccc4)cn3)CC2)c2ccccc2n1 [NCGC00386928] | – | – | 68.1 | 12.6 | CPE % Efficacy [1, 8]: 63.4%; EC50 [1, 8]: 12.6 µM |
| CCN(CC)CCCCNc1nc2cc(Cl)c(Cl)cc2nc1-c1ccc(-c2cccs2)s1 [PD-0220245] | 3.55 | 35.5 | 107.5 | 11.2 | – |
| C[C@@H]1O[C@@H](O[C@H]2[C@H](OC(=O)[C@]34CCC(C)(C)C[C@H]3C3=CCC5[C@@]6(C)C[C@H](O)[C@H](O[C@@H]7O[C@H](CO[C@@H]8OC[C@H](O)[C@H](O)[C@H]8O)[C@@H](O)[C@H](O)[C@H]7O)C(C)(C)C6CC[C@@]5(C)[C@]3(C)C[C@H]4O)OC[C@@H](O)[C@@H]2O)[C@H](O)[C@H](O[C@@H]2OC[C@](O)(CO)[C@H]2O)[C@H]1O[C@@H]1OC[C@H](O)[C@H](O[C@@H]2OC[C@@H](O)[C@H](O)[C@H]2O)[C@H]1O (stereo partly drawn) [NCGC00385321] | 2.4 | 105.7 | 35.4 | 2.4 | – |
| 10058-F4 | – | – | 34.2 | – | CPE % Efficacy [1, 8]: 62.2%; EC50 [1, 8]: 12.6 µM |
| C=C1Cc2c(Cl)cc3[nH]c4c5c3c2[C@@]2(O)[C@@H]1C[C@@H]2C(C)(C)O[C@H]5C1CC[C@@]2(O)[C@@]35O[C@@H]3[C@H]3OC(C)(C)[C@H]3O[C@H]5CC[C@]2(C)[C@@]41C (stereo partly drawn) [NCGC00380694] | 2.99 | 50.6 | 19.8 | 4.74 | – |
| CCCCN1[C@@H]2CC[C@H]1CC(OC(c1ccc(F)cc1)c1ccc(F)cc1)C2.Cl (stereo partly drawn) [JHW 007 hydrochloride] | 7.08 | 87.4 | 38.8 | 12.6 | – |
| COc1cc(C(=O)NC(=N)Nc2ccc(C)c(NC(=O)c3ccc(-c4ccccc4)cc3)c2)cc(OC)c1OC [MRT-83] | – | – | 37.9 | 10 | CPE % Efficacy [1, 8]: 56.4%; EC50 [1, 8]: 11.2 µM |
| CC1(C)CN2C(CSC(=NC3CCCCC3)NC3CCCCC3)=CSC2=N1.Cl.Cl [IT1t dihydrochloride, reference compound] | – | – | – | – | CPE % Efficacy [1, 6]: 96.3%; EC50 [1]: 3.5 µM; % Cytotox (Vero E6 cells; [7]): <30% |
